Data from patent US7425557B2, “Inhibitors of glycogen synthase kinase 3” (Novartis Vaccines and Diagnostics, Inc., priority 1998, dated 2008).

Biological target: human GSK3β (Homo sapiens, UniProt P49841)
Assay: Screening for GSK3 inhibitory activity using a cell-free assay
Format: biochemical
Conditions: read-out: IC50 with respect to GSK3
Method: This amount represents the amount of radiolabeled phosphate incorporated into the peptide substrate.
The captured radiolabeled peptide substrate can be quantitated in a scintillation counter using known methods. […] If an inhibitor is present during the reaction, GSK3 activity will be reduced, and a smaller quantity of radiolabeled phosphate will thus be incorporated into the peptide substrate.
Pyrimidine and pyridine compounds of the present invention were dissolved in DMSO, then tested for inhibition of human GSK3β (the nucleotide sequence for human GSK3β appears in GenBank under Accession No. L33801).
While the reaction was proceeding, streptavidin-coated Labsystems “Combiplate 8” capture plates (Labsystems, Helsinki, Finland) were blocked by incubating them with 300 μl/well of PBS containing 1% bovine serum albumin for at least one hour at room temperature. The blocking solution was then removed by aspiration, and the capture plates were filled with 100 ul/well of stopping reagent (50 μM ATP/20 mM EDTA).
When the three hour enzyme reaction was finished, triplicate 100 μl aliquots of each reaction mix were transferred to three wells containing stopping solution, one well on each of the three capture plates, and the well contents were mixed well. […] Finally, 200 μl of Microscint-20 scintillation fluid was added to each well of the plate. The plates were coated with plate sealers, then left on a shaker for 30 minutes. Each capture plate was counted in a Packard TopCount scintillation counter (Meridian, Conn.) and the results were plotted as a function of compound concentration.

Sequence of human GSK3β (P49841 whole entry): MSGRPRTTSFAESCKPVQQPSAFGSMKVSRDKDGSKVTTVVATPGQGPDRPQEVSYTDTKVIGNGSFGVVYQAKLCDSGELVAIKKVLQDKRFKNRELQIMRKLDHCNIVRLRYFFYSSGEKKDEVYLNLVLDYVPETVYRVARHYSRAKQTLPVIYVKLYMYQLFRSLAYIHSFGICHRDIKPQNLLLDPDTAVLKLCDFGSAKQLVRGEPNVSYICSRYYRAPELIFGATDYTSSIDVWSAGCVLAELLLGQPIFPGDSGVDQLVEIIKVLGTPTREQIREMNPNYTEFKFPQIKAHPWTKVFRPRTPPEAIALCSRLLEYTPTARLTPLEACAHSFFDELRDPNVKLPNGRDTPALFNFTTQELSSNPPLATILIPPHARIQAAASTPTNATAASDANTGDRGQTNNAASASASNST

| IC50 [nM] | Structure (SMILES) |
| --- | --- |
| ≤ 10000 | NC(=O)c1ccc(-c2ccnc(NCc3cccc(Cl)c3)n2)cc1 [4-(2-{[(3-chlorophenyl)methyl]amino}pyrimidin-4-yl)benzamide] |
| ≤ 10000 | Cc1cnc(CNC(=O)c2ccc(-c3ccnc(NCCNc4ccc([N+](=O)[O-])cn4)n3)cc2)cn1 [N-[(5-methylpyrazin-2-yl)methyl]{4-[2-({2-[(5-nitro(2-pyridyl))amino]ethyl}amino)pyrimidin-4-yl]phenyl}carboxamide] |
| ≤ 10000 | Cc1nc(C)c(-c2ccnc(NCCNc3ccc([N+](=O)[O-])cn3)n2)s1 [[4-(2,4-dimethyl(1,3-thiazol-5-yl))pyrimidin-2-yl]{2-[(5-nitro(2-pyridyl))-amino]ethyl}amine] |
| ≤ 10000 | COc1ccc(CNc2nccc(-c3ccc(C(N)=O)cc3)n2)cc1OC [4-(2-{[(3,4-dimethoxyphenyl)methyl]amino}-pyrimidin-4-yl)benzamide] |
| ≤ 1000 | Nc1nc(NCCNc2ncc(N3CCNCC3)c(-c3ccc(Cl)cc3Cl)n2)ccc1[N+](=O)[O-] [{2-[(6-amino-5-nitro(2-pyridyl))amino]-ethyl}[4-(2,4-dichlorophenyl)-5-piperazinylpyrimidin-2-yl]amine] |
| ≤ 1000 | COc1ccc(OC)c(CCNc2nccc(-c3ccc(C(N)=O)cc3)n2)c1 [4-(2-{[2-(2,5-dimethoxyphenyl)ethyl]amino}pyrimidin-4-yl)benzamide] |
| ≤ 1000 | CCOC(=O)c1cnc(NCCNc2ccc([N+](=O)[O-])cn2)nc1-c1ccc(Cl)cc1 [ethyl 4-(4-chlorophenyl)-2-({2-[(5-nitro(2-pyridyl))amino]ethyl}amino)pyrimidine-5-carboxylate] |
| ≤ 1000 | CCOC(=O)c1cnc(NCCNc2ccc([N+](=O)[O-])cn2)nc1-c1ccc(F)cc1 [ethyl 4-(4-fluorophenyl)-2-({2-[(5-nitro(2-pyridyl))amino]ethyl}amino)pyrimidine-5-carboxylate] |
| ≤ 10000 | NC(=O)c1ccc(-c2ccnc(NCCCOc3ccc(Cl)cc3)n2)cc1 [4-(2-{[3-(4-chlorophenoxy)propyl]amino}pyrimidin-4-yl)benzamide] |
| ≤ 1000 | COc1ccc(OCCCNc2nccc(-c3ccc(C(N)=O)cc3)n2)cc1 [4-(2-{[3-(4-methoxyphenoxy)propyl]-amino}pyrimidin-4-yl)benzamide] |
| ≤ 10000 | O=C(O)c1c(-c2ccccc2)nc(NCCNc2ccc([N+](=O)[O-])cn2)nc1-c1ccccc1F [6-(2-fluorophenyl)-2-({2-[(5-nitro(2-pyridyl))amino]ethyl}amino)-4-phenyl-pyrimidine-5-carboxylic acid] |
| ≤ 1000 | N#Cc1ccc(-c2nc(NCCNc3ccc([N+](=O)[O-])cn3)ncc2C(=O)OCCO)cc1 [2-hydroxyethyl 4-(4-cyanophenyl)-2-({2-[(5-nitro(2-pyridyl))-amino]ethyl}amino)pyrimidine-5-carboxylate] |
| ≤ 1000 | CCOC(=O)c1cnc(NCCNc2ccc([N+](=O)[O-])cn2)nc1-c1ccc(C(F)(F)F)cc1 [ethyl 2-({2-[(5-nitro(2-pyridyl))amino]ethyl}amino)-4-[4-(trifluoromethyl)phenyl]pyrimidine-5-carboxylate] |
| ≤ 10000 | O=C(NCc1cccnc1)c1ccc(-c2ccnc(NCCNc3ccc([N+](=O)[O-])cn3)n2)cc1 [{4-[2-({2-[(5-nitro(2-pyridyl))amino]ethyl}amino)pyrimidin-4-yl]phenyl}-N-(3-pyridylmethyl)carboxamide] |
| ≤ 1000 | O=[N+]([O-])c1ccc(NCCNc2ncc(-n3cnc4ccccc43)c(-c3ccc(Cl)cc3Cl)n2)nc1 [[5-benzimidazolyl-4-(2,4-dichlorophenyl)pyrimidin-2-yl]{2-[(5-nitro-(2-pyridyl))amino]ethyl}amine] |
| ≤ 10000 | NC(=O)c1ccc(-c2ccnc(NCc3cc(Cl)cc(Cl)c3)n2)cc1 [4-(2-{[(3,5-dichlorophenyl)methyl]amino}pyrimidin-4-yl)benzamide] |
| ≤ 1000 | CCOC(=O)c1cnc(NCCNc2cc(C)c([N+](=O)[O-])cn2)nc1-c1ccc(C#N)cc1 [ethyl 4-(4-cyanophenyl)-2-({2-[(4-methyl-5-nitro(2-pyridyl))amino]ethyl}amino)pyrimidine-5-carboxylate] |
| ≤ 1000 | CCOC(=O)c1c(-c2ccc(C(N)=O)cc2)nc(NCCNc2ccc([N+](=O)[O-])cn2)nc1-c1ccc([N+](=O)[O-])cc1 [ethyl 4-(4-carbamoylphenyl)-2-({2-[(5-nitro(2-pyridyl))amino]ethyl}-amino)-6-(4-nitrophenyl)pyrimidine-5-carboxylate] |
| ≤ 1000 | Cc1cn(-c2cnc(NCCNc3ccc([N+](=O)[O-])cn3)nc2-c2ccc(Cl)cc2Cl)cn1 [[4-(2,4-dichlorophenyl)-5-(4-methylimidazolyl)pyrimidin-2-yl]{2-[(5-nitro(2-pyridyl))amino]ethyl}amine] |

| IC50 [nM] | Structure (SMILES) |
| --- | --- |
| ≤ 10000 | Cc1cccc(CNc2nccc(-c3ccc(C(N)=O)cc3)n2)c1 [4-(2-{[(3-methylphenyl)-methyl]amino}pyrimidin-4-yl)benzamide] |
| ≤ 1000 | C/C(=N\c1cnc(NCCNc2ccc([N+](=O)[O-])c(N)n2)nc1-c1ccc(Cl)cc1Cl)N1CCOCC1 [[5-((1E)-1-aza-2-morpholin-4-ylprop-1-enyl)-4-(2,4-dichlorophenyl)pyrimidin-2-yl]{2-[(6-amino-5-nitro(2-pyridyl))amino]ethyl}amine] |
| ≤ 10000 | FC(F)(F)Oc1ccc(-c2ccnc(NCCNc3ccccn3)n2)cc1 [[2-(2-pyridylamino)ethyl]{4-[4-(trifluoromethoxy)-phenyl]pyrimidin-2-yl}amine] |
| ≤ 1000 | COc1cccc(NCCNc2nccc(-c3ccc(C(N)=O)cc3)n2)n1 [4-[2-({2-[(6-methoxy-2-pyridyl)amino]ethyl}amino)pyrimidin-4-yl]benzamide] |
| ≤ 10000 | CCOC(=O)c1cnc(NCCc2cccc(OC)c2)nc1-c1ccc(C#N)cc1 [ethyl 4-(4-cyanophenyl)-2-{[2-(3-methoxyphenyl)ethyl]amino}pyrimidine-5-carboxylate] |
| ≤ 1000 | CCOC(=O)c1cnc(NCCNc2ccc([N+](=O)[O-])c(N)n2)nc1-c1ccc(Cl)cc1Cl [ethyl 2-({2-[(6-amino-5-nitro(2-pyridyl))amino]ethyl}amino)-4-(2,4-dichlorophenyl)-pyrimidine-5-carboxylate] |
| ≤ 1000 | N#Cc1ccc(NCCNc2nccc(-c3ccc(C(=O)NCc4cccc(Br)c4)cc3)n2)nc1 [N-[(3-bromophenyl)methyl]{4-[2-({2-[(5-cyano(2-pyridyl))amino]ethyl}-amino)pyrimidin-4-yl]phenyl}carboxamide] |
| ≤ 10000 | CCOC(=O)c1cnc(NCCNc2ccc(N)cn2)nc1-c1ccc(C#N)cc1 [ethyl 2-({2-[(5-amino(2-pyridyl))amino]ethyl}amino)-4-(4-cyanophenyl)pyrimidine-5-carboxylate] |
| ≤ 1000 | N#Cc1ccc(-c2nc(NCCNc3ccc([N+](=O)[O-])cn3)nc(-c3ccc([N+](=O)[O-])cc3)c2C(=O)O)cc1 [4-(4-cyanophenyl)-2-({2-[(5-nitro(2-pyridyl))-amino]ethyl}amino)-6-(4-nitrophenyl)pyrimidine-5-carboxylic acid] |
| ≤ 10000 | NC(=O)c1ccc(-c2ccnc(NCCCOc3ccc(Cl)c(Cl)c3)n2)cc1 [4-(2-{[3-(3,4-dichlorophenoxy)-propyl]amino}pyrimidin-4-yl)benzamide] |
| ≤ 10000 | CCOC(=O)c1cnc(NCCNc2ccc([N+](=O)[O-])cn2)nc1-c1ccc(N(CC)CC)cc1 [ethyl 4-[4-(diethylamino)phenyl]-2-({2-[(5-nitro(2-pyridyl))amino]ethyl}-amino)pyrimidine-5-carboxylate] |
| ≤ 10000 | Fc1ccc(-c2ccnc(NCCNc3ccccn3)n2)cc1F [[4-(3,4-difluorophenyl)pyrimidin-2-yl][2-(2-pyridylamino)-ethyl]amine] |
| ≤ 10000 | CCc1ccc(-c2nc(N(C)CCNc3ccc(C#N)cn3)ccc2N2CCN(C)CC2=O)cc1 [6-({2-[[6-(4-ethylphenyl)-5-(4-methyl-2-oxo-1-piperazinyl)-2-pyridinyl](methyl)amino]ethyl}amino)nicotinonitrile] |
| ≤ 10000 | COc1cc(CNc2nccc(-c3ccc(C(N)=O)cc3)n2)cc(OC)c1OC [4-(2-{[(3,4,5-trimethoxyphenyl)methyl]amino}pyrimidin-4-yl)benzamide] |
| ≤ 1000 | Nc1nc(NCCNc2ncc(-c3ncc[nH]3)c(-c3ccc(F)cc3Cl)n2)ccc1[N+](=O)[O-] [{2-[(6-amino-5-nitro(2-pyridyl))amino]ethyl}[4-(2-chloro-4-fluorophenyl)-5-imidazol-2-ylpyrimidin-2-yl]amine] |
| ≤ 10000 | NC(=O)c1ccc(-c2ccnc(NCCCOc3ccc4ccccc4c3)n2)cc1 [4-{2-[(3-(2-naphthyloxy)propyl)amino]pyrimidin-4-yl}benzamide] |
| ≤ 1000 | CCOC(=O)c1cnc(NCCNc2ncc([N+](=O)[O-])c(N)n2)nc1-c1ccc(C#N)cc1 [ethyl 2-({2-[(4-amino-5-nitropyrimidin-2-yl)amino]ethyl}amino)-4-(4-cyanophenyl)pyrimidine-5-carboxylate] |
| ≤ 1000 | O=C(NCc1cccc(Br)c1)c1ccc(-c2ccnc(NCCNc3ncccn3)n2)cc1 [N-[(3-bromophenyl)methyl][4-(2-{[2-(pyrimidin-2-ylamino)ethyl]amino}pyrimidin-4-yl)phenyl]carboxamide] |
